We go through 9 molecules from patent US20230183219A1, “CONDENSED SUBSTITUTED HYDROPYRROLES AS ANTAGONISTS OF THE MUSCARINIC ACETYLCHOLINE RECEPTOR M4” (Vanderbilt University, priority 2020, published 2023).

SMILES strings stand for the structures.

This experiment deals with T1, Human M4 (Homo sapiens, UniProt P08173).
T1 construct: Human or rat M4 cDNA, along with the chimeric G protein Gqi5, were transfected into Chinese hamster ovary (CHO-K1) cells; expressed in transfected cells; host or cells: CHO-K1 (Chinese hamster ovary, ATCC), stably co-expressing Gqi5
T1 sequence (P08173 1-479): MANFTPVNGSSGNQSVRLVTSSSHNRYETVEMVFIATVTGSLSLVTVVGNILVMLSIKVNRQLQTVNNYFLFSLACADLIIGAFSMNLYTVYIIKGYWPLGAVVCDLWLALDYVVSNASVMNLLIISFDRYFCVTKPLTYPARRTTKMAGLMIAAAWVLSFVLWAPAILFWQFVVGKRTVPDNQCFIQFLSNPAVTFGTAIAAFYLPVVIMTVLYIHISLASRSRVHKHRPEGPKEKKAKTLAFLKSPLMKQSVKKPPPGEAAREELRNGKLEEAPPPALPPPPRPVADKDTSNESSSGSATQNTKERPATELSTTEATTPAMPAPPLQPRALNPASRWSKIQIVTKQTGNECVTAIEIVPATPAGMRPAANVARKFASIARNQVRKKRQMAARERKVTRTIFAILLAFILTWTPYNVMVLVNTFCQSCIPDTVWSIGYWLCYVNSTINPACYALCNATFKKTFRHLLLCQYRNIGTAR
Briefly: mAChR M4 cell-based functional assay (calcium flux, decrease of EC80 acetylcholine response). Particulars: for remaining activity at 30 µM: % ACh maximum at 30 μM, read-out: Human M4 Emin; for IC50: M4/Gqi5/CHO-K1 cells, decrease of response to EC80 acetylcholine. A digest of the protocol: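 IC50 reflects inhibition of an EC80 acetylcholine calcium response, fitted by four-parameter logistic equation. Fluo-4-loaded M4/Gqi5 CHO-K1 cells received compound (10-point, 1:3 series) 2 s into the FDSS read, then EC20 acetylcholine at 143 s and EC80 at 268 s.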

With `Cc1cc(C)cc(-c2cc(C(F)(F)F)c(N[C@H]3C[C@@H]4CN(Cc5ccccn5)C[C@@H]4C3)nn2)c1` [Example 104, (3aR,5s,6aS)-N-(6-(3,5-dimethylphenyl)-4-(trifluoromethyl)pyridazin-3-yl)-2-(pyridin-2-ylmethyl)octahydro-cyclopenta[c]pyrrol-5-amine], the remaining activity at 30 µM was found to be 3% and the half-inhibitory concentration (IC50) is 328 nM.
The like results for `Fc1cccc(-c2cc(C(F)(F)F)c(N[C@H]3C[C@@H]4CN(Cc5ccccn5)C[C@@H]4C3)nn2)c1` [Example 105, (3aR,5s,6aS)-N-(6-(3-fluorophenyl)-4-(trifluoro-methyl)pyridazin-3-yl)-2-(pyridin-2-ylmethyl)octahydro-cyclopenta[c]pyrrol-5-amine] were, in that order, 2% and 467 nM.
Turning to `Cn1cc2cc(-c3cc(C(F)(F)F)c(N[C@H]4C[C@@H]5CN(Cc6ccccn6)C[C@@H]5C4)nn3)ccc2n1` [Example 106, (3aR,5s,6aS)-N-(6-(2-methyl-2H-indazol-5-yl)-4-(trifluoromethyl)pyridazin-3-yl)-2-(pyridin-2-ylmethyl)octahydro-cyclopenta[c]pyrrol-5-amine], the remaining activity at 30 µM is 4% and the IC50 turned out to be 274 nM.
The like results for `[2H]C([2H])(C1CCOCC1)N1C[C@H]2C[C@H](Nc3nnc(-c4ccccc4OC)cc3C(F)(F)F)C[C@H]2C1` [Example 107, (3aR,5s,6aS)-N-(6-(2-methoxyphenyl)-4-(trifluoromethyl)pyridazin-3-yl)-2-((tetrahydro-2H-pyran-4-yl)methyl-d2)octahydro-cyclopenta[c]pyrrol-5-amine] were, in that order, 3% and 26.4 nM.
As to `[2H]C([2H])(C1CCOCC1)N1C[C@H]2C[C@H](Nc3nnc(-c4ccccc4)cc3C(F)(F)F)C[C@H]2C1` [Example 108, (3aR,5s,6aS)-N-(6-phenyl-4-(trifluoromethyl)pyridazin-3-yl)-2-((tetrahydro-2H-pyran-4-yl)methyl-d2)octahydro-cyclopenta[c]pyrrol-5-amine], the remaining activity at 30 µM was determined as 3% and the IC50 was determined as 41.2 nM.
For `[2H]C([2H])(C1CCOCC1)N1C[C@H]2C[C@H](Nc3nnc(-c4cnn(C)c4)cc3C(F)(F)F)C[C@H]2C1` [Example 109, (3aR,5s,6aS)-N-(6-(1-methyl-1H-pyrazol-4-yl)-4-(trifluoro-methyl)pyridazin-3-yl)-2-((tetrahydro-2H-pyran-4-yl)methyl-d2)octahydro-cyclopenta[c]pyrrol-5-amine] the same measures were 3% and 71.8 nM.
Turning to `[2H]C([2H])(C1CCOCC1)N1C[C@H]2C[C@H](Nc3nnc(-c4ccc(F)cc4C)cc3C(F)(F)F)C[C@H]2C1` [Example 110, (3aR,5s,6aS)-N-(6-(4-fluoro-2-methylphenyl)-4-(trifluoromethyl)pyridazin-3-yl)-2-((tetrahydro-2H-pyran-4-yl)methyl-d2)octahydro-cyclopenta[c]pyrrol-5-amine], the remaining activity at 30 µM was 3% and the half-inhibitory concentration (IC50) was found to be 46.7 nM.
For `[2H]C([2H])(C1CCOCC1)N1C[C@H]2C[C@H](Nc3nnc(-c4ccc5c(c4)ncn5C)cc3C(F)(F)F)C[C@H]2C1` [Example 111, (3aR,5s,6aS)-N-(6-(1-methyl-1H-benzo[d]imidazol-5-yl)-4-(trifluoro-methyl)pyridazin-3-yl)-2-((tetrahydro-2H-pyran-4-yl)methyl-d2)octahydro-cyclopenta[c]pyrrol-5-amine] the same measures were 3% and 136 nM.
The like results for `FC(F)(F)c1cc(-c2ccc3ncsc3c2)nnc1N[C@H]1C[C@@H]2CN(CC3CCOCC3)C[C@@H]2C1` [Example 112, (3aR,5s,6aS)-N-(6-(benzo[d]thiazol-6-yl)-4-(trifluoromethyl)pyridazin-3-yl)-2-((tetrahydro-2H-pyran-4-yl)methyl)octahydro-cyclopenta[c]pyrrol-5-amine] were, in that order, 3% and 8.9 nM.
